This assay has as its target T1, recombinant human ACC2 (Homo sapiens, UniProt O00763).
T1 construct: a cDNA encoding human ACC2 (27-2458) was cloned from human kidney cDNA library (Clontech); His-tag (N); made in house; host or cells: Sf-9 insect cells (Bac-to-Bac baculovirus)
Nature of the assay: Measurement of inhibitory activity on human ACC2 (MALDI-TOF MS, acetyl CoA to malonyl CoA conversion). The format is biochemical.

[1] abbreviates: inhibition activity on human ACC2, Table 82, read-out: IC50.
[2] abbreviates: inhibition activity on human ACC2, Table 84, read-out: IC50.
Where [3] appears, read: inhibition activity on human ACC2, Table 80, read-out: IC50.
Setting [4] is: inhibition activity on human ACC2, untitled table (Table 81), read-out: IC50.
Where [5] appears, read: inhibition activity on human ACC2, Table 79, read-out: IC50.

Each structure is given as a SMILES string. Where two headings read alike, the source gives them in different places.

T1 sequence (O00763 27-2458): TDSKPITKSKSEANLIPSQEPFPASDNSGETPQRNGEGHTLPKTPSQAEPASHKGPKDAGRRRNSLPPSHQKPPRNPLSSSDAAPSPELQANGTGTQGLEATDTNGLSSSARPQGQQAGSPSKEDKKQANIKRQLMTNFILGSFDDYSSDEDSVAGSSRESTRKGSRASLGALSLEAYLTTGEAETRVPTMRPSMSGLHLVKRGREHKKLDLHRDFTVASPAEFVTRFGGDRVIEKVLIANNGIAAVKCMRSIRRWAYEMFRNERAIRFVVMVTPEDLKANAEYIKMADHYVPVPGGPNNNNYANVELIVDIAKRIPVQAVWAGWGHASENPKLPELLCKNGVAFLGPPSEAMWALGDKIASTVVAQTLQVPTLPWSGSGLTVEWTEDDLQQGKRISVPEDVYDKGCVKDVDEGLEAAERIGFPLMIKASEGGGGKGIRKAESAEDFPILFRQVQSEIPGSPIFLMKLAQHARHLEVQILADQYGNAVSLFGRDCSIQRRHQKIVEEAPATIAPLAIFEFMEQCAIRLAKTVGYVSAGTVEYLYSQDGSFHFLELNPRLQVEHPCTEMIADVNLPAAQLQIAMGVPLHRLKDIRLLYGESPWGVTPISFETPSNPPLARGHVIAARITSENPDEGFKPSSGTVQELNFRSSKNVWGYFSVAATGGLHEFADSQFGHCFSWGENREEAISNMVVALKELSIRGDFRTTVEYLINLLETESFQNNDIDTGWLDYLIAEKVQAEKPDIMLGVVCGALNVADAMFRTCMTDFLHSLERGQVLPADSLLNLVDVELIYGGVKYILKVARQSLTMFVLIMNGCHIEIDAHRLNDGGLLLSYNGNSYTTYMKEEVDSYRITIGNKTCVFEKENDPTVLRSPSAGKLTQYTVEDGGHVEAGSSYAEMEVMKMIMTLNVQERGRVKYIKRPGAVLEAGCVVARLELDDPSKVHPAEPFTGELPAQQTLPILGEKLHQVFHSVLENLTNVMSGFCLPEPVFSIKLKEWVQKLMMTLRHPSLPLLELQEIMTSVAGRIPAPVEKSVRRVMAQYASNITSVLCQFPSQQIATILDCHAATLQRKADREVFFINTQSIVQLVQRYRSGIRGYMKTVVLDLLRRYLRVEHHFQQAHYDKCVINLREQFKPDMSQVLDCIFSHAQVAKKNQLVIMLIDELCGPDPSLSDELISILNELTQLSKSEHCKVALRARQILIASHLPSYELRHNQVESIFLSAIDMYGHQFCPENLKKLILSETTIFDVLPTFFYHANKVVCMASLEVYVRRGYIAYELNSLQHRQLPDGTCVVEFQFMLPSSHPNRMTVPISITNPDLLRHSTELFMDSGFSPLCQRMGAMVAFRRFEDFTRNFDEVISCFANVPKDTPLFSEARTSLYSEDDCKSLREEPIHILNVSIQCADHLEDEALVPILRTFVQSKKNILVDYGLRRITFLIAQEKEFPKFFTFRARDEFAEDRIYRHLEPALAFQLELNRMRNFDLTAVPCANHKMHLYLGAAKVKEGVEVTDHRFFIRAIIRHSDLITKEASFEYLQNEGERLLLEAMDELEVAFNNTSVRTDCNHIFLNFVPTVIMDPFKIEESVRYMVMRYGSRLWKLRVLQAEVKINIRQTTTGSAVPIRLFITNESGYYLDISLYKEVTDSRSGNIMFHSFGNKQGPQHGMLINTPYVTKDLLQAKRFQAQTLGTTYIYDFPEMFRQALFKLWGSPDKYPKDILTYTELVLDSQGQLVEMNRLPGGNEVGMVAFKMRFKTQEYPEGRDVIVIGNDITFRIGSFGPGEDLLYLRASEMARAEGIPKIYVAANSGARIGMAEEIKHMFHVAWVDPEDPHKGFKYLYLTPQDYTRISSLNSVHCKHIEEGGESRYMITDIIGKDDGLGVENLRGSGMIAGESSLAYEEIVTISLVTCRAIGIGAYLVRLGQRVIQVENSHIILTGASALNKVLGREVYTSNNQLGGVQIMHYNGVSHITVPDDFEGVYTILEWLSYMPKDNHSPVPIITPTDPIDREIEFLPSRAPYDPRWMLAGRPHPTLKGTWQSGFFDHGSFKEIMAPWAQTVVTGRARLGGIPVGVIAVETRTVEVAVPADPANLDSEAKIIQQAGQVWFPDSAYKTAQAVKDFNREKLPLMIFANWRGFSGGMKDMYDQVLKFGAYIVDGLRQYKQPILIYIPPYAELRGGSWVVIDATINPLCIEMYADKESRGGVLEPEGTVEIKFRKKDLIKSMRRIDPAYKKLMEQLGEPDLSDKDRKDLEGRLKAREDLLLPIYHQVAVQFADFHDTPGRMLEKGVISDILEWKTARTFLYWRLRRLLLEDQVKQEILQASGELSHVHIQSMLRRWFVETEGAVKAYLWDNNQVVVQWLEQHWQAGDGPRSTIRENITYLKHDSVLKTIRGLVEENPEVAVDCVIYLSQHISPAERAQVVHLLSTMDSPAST

As usually defined, the IC50 is the concentration that inhibits the measured activity by half. For the compound `CC(=O)N[C@@H](C)/C=C/c1ccc(Oc2ccc(-c3ccc(C)cc3)cc2Cl)nc1` [Compound I-344], under setting [1], the IC50 came out at 51 nM.
For the compound `CCOc1ccc(Oc2ccc(/C=C/C(C)CNC(C)=O)cn2)c(Cl)c1` (stereo not drawn) [I’-1], the IC50 under setting [2] was determined as 560 nM.
Take `CCOc1ccc(Oc2ccc(/C=C/[C@H](C)Nc3cc(C)no3)cn2)c(Cl)c1` [Compound I-204]: the IC50 under setting [3] came to 38 nM.
As to `CC(=O)N[C@@H](C)/C=C/c1ccc(Oc2ccnc(OCC3CC3)c2)nc1` [Compound I-255], the IC50 under setting [4] is 87 nM.
On to `CCOc1ccc(OCc2ccc(/C=C/[C@H](C)NC(C)=O)cn2)c(Cl)c1` [Compound I-35], for which the IC50 under setting [5] is 1100 nM.
`CC(=O)N[C@@H](C)/C=C/c1ccc(Oc2ccc(CC(C)(C)C)cc2Cl)nc1` [Compound I-371]: the 50% inhibitory concentration (IC50) under setting [1] amounted to 60 nM.
The same measure, in the same setting: next, `CC(=O)N[C@@H](C)/C=C/c1ccc(Oc2ccc(-c3ccccc3C#N)cc2Cl)nc1` [Compound I-347]: 300 nM.
For `CCOc1ccc(Oc2ccc(/C=C(\C)C(C)NC(C)=O)cn2)c(Cl)c1` (stereo not drawn) [Compound I-271], under setting [4], the IC50 turned out to be 79 nM.
For the compound `CCOC(=O)c1cc(C(=O)N[C@@H](C)/C=C/c2cnn(Cc3ccc(OCC4CC4)cc3Cl)c2)ccn1` [Compound I-173], the IC50 under setting [3] came to 59 nM.
Take `CC(=O)N[C@@H](C)/C=C/c1ccc(Oc2ccc(OCC3CC3)cc2Cl)cn1` [Compound I-490]: the IC50 under setting [2] turned out to be 42 nM.
On the same count and under the same terms, for `CCc1nc2ccc(Oc3ccc(/C=C/[C@H](C)NC(C)=O)cn3)c(Cl)c2s1` [Compound I-474] the value was 9.7 nM; for `CC(=O)N[C@@H](C)/C=C/c1ccc(Oc2ccc(C3=CCC4(CC3)CC4)cc2Cl)cn1` [Compound I-513], 27 nM.
Turning to `CCCc1ccc(Oc2ccc(/C=C/[C@H](C)NC(=O)CO)cn2)c(Cl)c1` [Compound I-384], the IC50 was found to be 280 nM.
Consider `CCCc1ccc(Oc2ccc(/C=C/[C@H](C)NC(C)=O)nc2)c(Cl)c1` [Compound I-496], for which, under setting [2], the IC50 stood at 210 nM.
For `CC(=O)N[C@@H](C)/C=C/c1ccc(Oc2ccc(C(C)=O)cc2Cl)nc1` [Compound I-327], the half-inhibitory concentration (IC50) under setting [1] is 340 nM.
Consider `CCNC(=O)c1cc(C(=O)N[C@@H](C)/C=C/c2cnn(Cc3ccc(OC(F)(F)F)cc3)c2)ccn1` [Compound I-308], for which the IC50 under setting [4] was 480 nM.
Take `CC(=O)N[C@@H](C)/C=C/c1cnc(N2CCc3cc(OCC4CC4)ccc32)s1` [Compound I-59]: the IC50 under setting [5] amounted to 950 nM.
As to `CCSc1ccc(Oc2ccc(/C=C/[C@H](C)NC(C)=O)cn2)c(Cl)c1` [Compound I-360], the IC50 under setting [1] came out at 9.1 nM.
Take `C[C@@H](/C=C/c1cnc(Oc2ccc(OCC3CC3)cc2Cl)s1)NC(=O)C1(C)CC1` [Compound I-83]: under setting [5], the IC50 came to 48 nM.
Take `CC(=O)NC(C)/C(C)=C/c1ccc(Oc2ccc(OCC3CC3)cc2Cl)nc1` (stereo not drawn) [Compound I-282]: the IC50 under setting [4] was 13 nM.
As for `CC(=O)N[C@@H](C)/C=C/c1cnc(Oc2ccc(Br)c(Cl)c2)nc1` [Compound I-274], the half-inhibitory concentration (IC50) under setting [4] worked out at 350 nM.
Take `CCOc1ccc(OCc2cccc(/C=C/[C@H](C)NC(C)=O)c2)c(Cl)c1` [Compound I-506]: under setting [2], the IC50 worked out at 8.2 nM.
`C[C@@H](/C=C/c1cnc(Oc2ccc(OCC3CC3)cc2Cl)s1)NC(=O)c1ccnc(C(=O)NC2CCOCC2)c1` [Compound I-209]: the IC50 under setting [3] turned out to be 4.5 nM.
In the case of `CC(=O)N[C@@H](C)/C=C/c1ccc(Oc2cnc(N3CCC(F)(F)CC3)nc2)nc1` [Compound I-517], the IC50 under setting [2] worked out at 47 nM.
The same measure, in the same setting: next, `CCCc1ccc(Oc2ccc(/C=C/[C@H](C)NC(C)=O)cn2)c(Cl)c1Cl` [Compound I-440]: 20 nM.
Take `CC(=O)N[C@@H](C)/C=C/c1ccc(Oc2ccc(-c3ncco3)cc2Cl)nc1` [Compound I-268]: under setting [4], the IC50 stood at 110 nM.
With `CC(=O)N[C@@H](C)/C=C/c1ccc(Oc2ccc3nc(C)sc3c2C#N)nc1` [Compound I-509], the concentration for half-maximal inhibition (IC50) under setting [2] was 23 nM.
In the case of `CC(=O)N[C@@H](C)/C=C/c1cc(Oc2ccc(OCC3CC3)cc2Cl)no1` [Compound I-381], the IC50 turned out to be 360 nM.
On the same count and under the same terms, for `CCCc1cc(Cl)c(Oc2ccc(/C=C/[C@H](C)NC(N)=O)cn2)c(Cl)c1` [Compound I-387] the value was 560 nM.
For `CCCc1ncc(Oc2ccc(/C=C/[C@H](C)NC(C)=O)cn2)cc1Cl` [Compound I-294], under setting [4], the half-maximal inhibitory concentration (IC50) came to 150 nM.
On to `CCOc1cc(Oc2ccc(/C=C/[C@H](C)NC(C)=O)cn2)ccc1F` [Compound I-280], for which the IC50 under setting [4] turned out to be 170 nM.
As to `CC(C)C(F)(F)c1ccc(Oc2ccc(/C=C/[C@H](C)NC(N)=O)cn2)c(Cl)c1` [Compound I-399], the IC50 was determined as 68 nM.
`C[C@@H](/C=C/c1cnc(Oc2ccc(OCC3CC3)cc2Cl)s1)NC(=O)c1ccnc(C(=O)NCCO)c1` [Compound I-206]: under setting [3], the IC50 stood at 6.3 nM.
For `CCOc1ccc(Oc2ccc(/C=C(\F)C(C)NC(C)=O)cn2)c(Cl)c1` (stereo not drawn) [Compound I-365], the IC50 under setting [1] worked out at 10 nM.
As to `CCCn1cc(Oc2ccc(/C=C/[C@H](C)NC(C)=O)cn2)cn1` [Compound I-388], the IC50 came to 2000 nM.
With `CCCc1ccc(Oc2ccc(/C=C/[C@H](C)NC(C)=O)cn2)c(C)n1` [Compound I-322], under setting [1], the 50% inhibitory concentration (IC50) was 490 nM.
As for `CCNC(=O)c1cc(C(=O)N[C@@H](C)/C=C/c2cnn(Cc3ccc(F)c(Cl)c3)c2)ccn1` [Compound I-314], the IC50 under setting [4] worked out at 960 nM.
Still for that read-out and setting: for `CCC(C)(C)c1ccc(Oc2ccc(/C=C/[C@H](C)NC(C)=O)cn2)c(Cl)c1` [Compound I-253] the value was 17 nM.
As for `CC(=O)N[C@@H](C)/C=C/c1ccc(Oc2ccc(-c3nc4ccccc4s3)cc2Cl)nc1` [Compound I-415], the IC50 turned out to be 120 nM.
As for `CC(=O)N[C@@H](C)/C=C/c1ccc(Oc2ccc3nc(C(F)(F)F)sc3c2)nc1` [Compound I-481], the IC50 under setting [2] was 13 nM.
`CCNC(=O)N[C@@H](C)/C=C/c1cnc(Oc2ccc(OCC3CC3)cc2Cl)s1` [Compound I-195]: the IC50 came out at 61 nM.
For the compound `CC(=O)N[C@@H](C)/C=C/c1ccc(Oc2ccc(S(=O)(=O)CC(C)C)cc2Cl)nc1` [Compound I-367], the IC50 under setting [1] was 140 nM.
Take `CC(=O)N[C@@H](C)/C=C/c1ccc(Oc2cc3c(cc2Cl)OC(C)(C)C3)nc1` [Compound I-507]: the IC50 under setting [2] came out at 43 nM.
In the case of `CCNC(=O)c1cc(C(=O)N[C@@H](C)/C=C/c2cnn(Cc3ccc(OCC4CC4)cc3F)c2)ccn1` [Compound I-318], the 50% inhibitory concentration (IC50) under setting [1] was 67 nM.
For the compound `CC(=O)N[C@@H](C)/C=C/c1cnc(Oc2ccc(OCC3CC3)cc2Cl)c(F)c1` [Compound I-447], the IC50 under setting [2] was 25 nM.
Take `CC(=O)N[C@@H](C)/C=C/c1ccc(Oc2ccc(C(F)(F)C(C)C)cc2Cl)nc1` [Compound I-396]: the half-maximal inhibitory concentration (IC50) was determined as 55 nM.
In the case of `CC(=O)N[C@@H](C)/C=C/c1ccc(Oc2ccc(OCc3ccccc3)cc2Cl)nc1` [Compound I-450], under setting [2], the IC50 stood at 60 nM.
Take `Cc1ccc(-c2cc(C(=O)N[C@@H](C)/C=C/c3cnc(Oc4ccc(OCC5CC5)cc4Cl)s3)ccn2)o1` [Compound I-137]: under setting [3], the IC50 turned out to be 630 nM.
For the compound `CC(=O)N[C@@H](C)/C=C/c1ccc(Oc2ccc3nc(C)oc3c2)nc1` [Compound I-461], the IC50 under setting [2] amounted to 1500 nM.
For `CC(=O)N[C@@H](C)/C=C/c1ccc(Oc2ccc(OCC3CC3)cc2Cl)nc1` [Compound I-14], the IC50 under setting [5] amounted to 6.9 nM.
The same measure, in the same setting: for `C[C@@H](/C=C/c1cnc(Oc2ccc(OCC3CC3)cc2Cl)s1)NC(=O)CCCN1CCCC1` [Compound I-88] the value was 890 nM.
Turning to `CCOc1ccc(F)c(Oc2ccc(/C=C/[C@H](C)NC(C)=O)cn2)c1` [Compound I-278], the IC50 under setting [4] amounted to 79 nM.
`CC(=O)N[C@@H](C)/C=C/c1ccc(Oc2ccc3c(c2)CCN(CC2CC2)C3=O)nc1` [Compound I-468]: the IC50 under setting [2] was determined as 90 nM.
Still for that read-out and setting: for `CC(=O)N[C@@H](C)/C=C/c1ccc(Oc2cc3sc(C)nc3cc2Cl)nc1` [Compound I-478] the value was 550 nM.
Still for that read-out and setting: next, `CCC(F)(F)c1ccc(Oc2cnc(/C=C/[C@H](C)NC(C)=O)cn2)c(Cl)c1` [Compound I-473]: 39 nM.
For the compound `CCOc1ccc(NCc2ccc(/C=C/[C@H](C)NC(C)=O)cn2)cc1` [Compound I-356], the half-inhibitory concentration (IC50) under setting [1] worked out at 5400 nM.
Regarding `CC(=O)N[C@@H](C)/C=C/c1cnc(Oc2ccc(OCC3CC3)cc2Cl)c(C#N)c1` [Compound I-445], under setting [2], the IC50 turned out to be 260 nM.
As for `CC(=O)N[C@@H](C)/C=C/c1ccc(Oc2ccc3c(c2Cl)CCC3(F)F)nc1` [Compound I-466], the half-maximal inhibitory concentration (IC50) under setting [2] stood at 16 nM.
With `CC(=O)N[C@@H](C)/C=C/c1ccc(Oc2cc(C)c(C)cc2Cl)nc1` [Compound I-457], the concentration for half-maximal inhibition (IC50) under setting [2] came to 310 nM.
`CC(=O)N[C@@H](C)/C=C/c1cnn(CCc2ccc(OCC3CC3)cc2)c1` [Compound I-66]: under setting [5], the IC50 was found to be 5700 nM.
In the case of `CC(=O)N[C@@H](C)/C=C/c1ccc(Oc2ccc(N3CCCCC3)nc2)nc1` [Compound I-516], under setting [2], the IC50 came out at 170 nM.
Regarding `C[C@@H](/C=C/c1cnc(Oc2ccc(OCC3CC3)cc2Cl)s1)NC(=O)Cn1ccnc1` [Compound I-123], the IC50 under setting [3] is 180 nM.
In the case of `CCNC(=O)c1cc(C(=O)N[C@@H](C)/C=C/c2cnn(Cc3ccc(C(C)C)cc3)c2)ccn1` [Compound I-312], under setting [4], the 50% inhibitory concentration (IC50) is 570 nM.
Turning to `COc1ccc(Cl)c(Oc2ccc(/C=C/[C@H](C)NC(C)=O)cn2)c1` [Compound I-27], the IC50 under setting [5] was found to be 1200 nM.
With `COCCOCC(=O)N[C@@H](C)/C=C/c1cnc(Oc2ccc(OCC3CC3)cc2Cl)s1` [Compound I-104], under setting [5], the IC50 worked out at 450 nM.
For the compound `C[C@@H](/C=C/c1cnc(Oc2ccc(OCC3CC3)cc2Cl)s1)NC(=O)[C@H]1CNC(=O)O1` [Compound I-133], under setting [3], the IC50 was determined as 920 nM.
Regarding `CCCOc1ccc(Oc2ncc(/C=C/[C@H](C)NC(C)=O)s2)c(Cl)c1` [Compound I-2], under setting [5], the IC50 came to 16 nM.
On the same count and under the same terms, next, `C[C@@H](/C=C/c1cnc(Oc2ccc(OCC3CC3)cc2Cl)s1)NC(=O)CC(F)(F)F` [Compound I-82]: 160 nM.
For the compound `CCCCc1ccc(Oc2ccc(/C=C/[C@H](C)NC(C)=O)cn2)c(Cl)c1` [Compound I-337], the IC50 under setting [1] came out at 23 nM.

Source of the values: patent publication US20150246938A1, “NOVEL OLEFIN DERIVATIVE” (SHIONOGI & CO., LTD., priority 2011, published 2015).
